The values below come from ChEMBL document CHEMBL1201862, “PubChem BioAssay data set” (2004).

Among the test systems are NCI-H23; BT-549; HCT-15; CAKI-1; SNB-19; HCC 2998; DU-145; Malme-3M; LOX IMVI; OVCAR-3; UACC-62; SK-MEL-5; U-251; A498; CCRF-CEM; SK-MEL-2; SNB-75; Hs-578T; OVCAR-4; SF-539.
Common to all, as to assay: DTP human tumour cell line panel, 48 h

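Method: 48-hour compound exposure of cells in 96-well plates, five concentrations, linear interpolation of endpoints. GI50 marks 50% less growth.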 Calls of active or inactive are those of the source. No stated cut-off is given here; in the data, active = GI50 up to about 1.1 µM and inactive = higher.

By GI50 is commonly meant the concentration at which growth is held to half of that of the control. Turning to `O=C(O)c1cc(O)nc(S)n1`, the GI50 in the test on NCI-H23 was > 100 µM (inactive); with BT-549 it was > 100 µM (inactive); in the test on HCT-15, above 100 µM; in the test on CAKI-1 it was > 100 µM (inactive); in the test on SNB-19, > 100 µM (inactive); in the test on HCC 2998 it was > 100 µM (inactive). Further, the GI50 in the test on DU-145, in the test with Malme-3M, with LOX IMVI, with OVCAR-3, in the test with UACC-62 and with SK-MEL-5 was > 100 µM (inactive) throughout. The GI50 was > 100 µM (inactive) with U-251; > 100 µM (inactive) with A498; > 100 µM (inactive) in the test on CCRF-CEM; > 100 µM (inactive) in the test with SK-MEL-2; 94.2 µM (inactive) in the test on SNB-75; > 100 µM (inactive) in the test with Hs-578T. Moreover, in the test on OVCAR-4, the GI50 was > 100 µM (inactive).

Consider `CC(=O)Nc1ccc(C(=O)NN2C(=O)C(Cl)C2c2cc(Br)ccc2O)cc1` (configuration not stated), for which the GI50 in the test on NCI-H23 is 5.75 µM (inactive); in the test with BT-549, 14.8 µM (inactive); in the test with HCT-15, 2.14 µM; in the test on SNB-19, 7.62 µM (inactive); in the test with HCC 2998, 11.2 µM (inactive); in the test with DU-145 it was 6.14 µM (inactive). The GI50 was 5.55 µM (inactive) in the test with Malme-3M; 4.11 µM (inactive) with OVCAR-3; 3.85 µM (inactive) in the test with UACC-62; 4.19 µM (inactive) in the test on SF-539; 5.04 µM (inactive) in the test with SK-MEL-5; 2.59 µM (inactive) in the test with U-251. Also, the GI50 was 1.85 µM (inactive) in the test on CCRF-CEM; 4.86 µM (inactive) with SK-MEL-2; 44.4 µM (inactive) with SNB-75; 66.1 µM (inactive) in the test with Hs-578T; 3.76 µM (inactive) with OVCAR-4.

For the molecule `NCC(=O)N1CCN(c2nc(N3CCCC3)c3nc(Cl)c(NCc4ccccc4)nc3n2)CC1`, the GI50 with NCI-H23 was 1.95 µM (inactive); with BT-549 it was 2.09 µM (inactive); with HCT-15 it was 1.97 µM; with CAKI-1 it was 2.44 µM (inactive); with SNB-19, 1.82 µM (inactive); in the test on HCC 2998, 1.66 µM (inactive). Moreover, the GI50 in the test with DU-145 was 2.41 µM (inactive); in the test with Malme-3M, 2.15 µM (inactive); in the test on LOX IMVI it was 1.78 µM (inactive); in the test on OVCAR-3 it was 1.82 µM (inactive); in the test with UACC-62 it was 1.8 µM (inactive); in the test with SF-539 it was 1.99 µM (inactive). Besides, the GI50 is 1.72 µM (inactive) with SK-MEL-5; 1.71 µM (inactive) in the test on U-251; 2.49 µM (inactive) in the test with CCRF-CEM; 1.86 µM (inactive) with SK-MEL-2; 1.57 µM (inactive) in the test with SNB-75; 2.12 µM (inactive) with Hs-578T. Moreover, the GI50 in the test on OVCAR-4 is 2.15 µM (inactive).

For `COC(=O)Cc1cccc2c(=O)c(S(=O)(=O)NC(=O)Nc3ccc(Cl)cc3)c(-c3ccccc3)oc12`, the GI50 in the test on NCI-H23 was 57 µM (inactive); in the test with BT-549 it was 55.6 µM (inactive); in the test with HCT-15 it was 8.75 µM; in the test with CAKI-1 it was 24.3 µM (inactive); in the test with SNB-19, 44.6 µM (inactive); in the test with HCC 2998, 54.6 µM (inactive). Moreover, the GI50 with DU-145 was > 100 µM (inactive); in the test on LOX IMVI, 13.5 µM (inactive); in the test with OVCAR-3, 79.8 µM (inactive); in the test on UACC-62, 13.5 µM (inactive); with SF-539, 58.5 µM (inactive); in the test on SK-MEL-5 it was 30.2 µM (inactive). Moreover, the GI50 in the test with U-251 was 50.6 µM (inactive); with CCRF-CEM, 15.9 µM (inactive); in the test with SNB-75, > 100 µM (inactive); in the test with Hs-578T it was > 100 µM (inactive); in the test with OVCAR-4, > 100 µM (inactive).

With `Cc1ccc2c(c1)C=CC1(O2)N(c2ccccc2)C(=S)OC1(C)C` (configuration not stated), the GI50 in the test with NCI-H23 was 35.4 µM (inactive); in the test with BT-549 it was > 100 µM (inactive); with HCT-15, 46.2 µM; in the test with CAKI-1, > 100 µM (inactive); with SNB-19, > 100 µM (inactive); with HCC 2998 it was 76.9 µM (inactive). For the same molecule, the GI50 was > 100 µM (inactive) with DU-145; > 100 µM (inactive) in the test with LOX IMVI; 29.6 µM (inactive) in the test with OVCAR-3; 40.9 µM (inactive) in the test on UACC-62; 32.1 µM (inactive) in the test on SK-MEL-5; 83.8 µM (inactive) in the test with U-251. For the same molecule, the GI50 in the test on A498 was > 100 µM (inactive); in the test with CCRF-CEM, 53 µM (inactive); in the test with SK-MEL-2 it was 29 µM (inactive); with SNB-75, > 100 µM (inactive); in the test with Hs-578T, 31.9 µM (inactive); in the test with OVCAR-4, 25.8 µM (inactive).

For `COc1ccc(N2C(=O)C3c4[nH]c5ccccc5c4C4CCC(C(C)C)CC4C3C2=O)cc1` (configuration not stated), the GI50 was > 100 µM (inactive) in the test on NCI-H23; > 100 µM (inactive) with BT-549; above 100 µM in the test on HCT-15; > 100 µM (inactive) with CAKI-1; > 100 µM (inactive) in the test on SNB-19; > 100 µM (inactive) in the test on HCC 2998. In addition, the GI50 in the test on DU-145 is > 100 µM (inactive); in the test with Malme-3M it was 42.9 µM (inactive); in the test on LOX IMVI it was > 100 µM (inactive); with OVCAR-3, > 100 µM (inactive); with UACC-62, > 100 µM (inactive); in the test on SK-MEL-5, > 100 µM (inactive). The GI50 in the test with U-251 was 38.8 µM (inactive); with A498, > 100 µM (inactive); in the test with CCRF-CEM, 0.343 µM (active); in the test with SK-MEL-2 it was > 100 µM (inactive); in the test with SNB-75, 35.2 µM (inactive); with Hs-578T, 40.7 µM (inactive). The GI50 in the test with OVCAR-4 is > 100 µM (inactive).

`N=C(N)NS(=O)(=O)c1ccc(NC(=O)c2cccc3c(NNc4ccc(S(N)(=O)=O)cc4)c4ccccc4nc23)cc1`: the GI50 is > 100 µM (inactive) with NCI-H23; 74.5 µM (inactive) in the test on BT-549; 38.9 µM in the test with HCT-15; > 100 µM (inactive) in the test with CAKI-1; > 100 µM (inactive) with SNB-19; > 100 µM (inactive) in the test on HCC 2998. Besides, the GI50 was > 100 µM (inactive) with DU-145; 34.8 µM (inactive) in the test on Malme-3M; 20.4 µM (inactive) with LOX IMVI; 36.1 µM (inactive) in the test with OVCAR-3; > 100 µM (inactive) in the test with UACC-62; > 100 µM (inactive) with SF-539. The GI50 is 55.6 µM (inactive) with SK-MEL-5; 44.2 µM (inactive) with U-251; 34.5 µM (inactive) in the test on CCRF-CEM; > 100 µM (inactive) with SK-MEL-2; > 100 µM (inactive) in the test on SNB-75; 59.4 µM (inactive) with Hs-578T. In the test on OVCAR-4, the GI50 was > 100 µM (inactive).

As for `CC1OC(=O)c2ccccc2NC1=O` (configuration not stated), the GI50 with NCI-H23 was > 100 µM (inactive); in the test on BT-549 it was > 100 µM (inactive); with HCT-15, above 100 µM; with CAKI-1, > 100 µM (inactive); in the test on SNB-19, > 100 µM (inactive); in the test on DU-145 it was > 100 µM (inactive). For the same molecule, the GI50 in the test with Malme-3M, in the test on LOX IMVI, in the test with OVCAR-3, in the test with UACC-62, in the test on SF-539 and in the test on SK-MEL-5 was > 100 µM (inactive) in each case. Moreover, the GI50 in the test on U-251, with A498, in the test with CCRF-CEM, in the test with SK-MEL-2, in the test with SNB-75 and in the test with Hs-578T was > 100 µM (inactive) in each case. Moreover, the GI50 in the test with OVCAR-4 was > 100 µM (inactive).

`O=c1[nH]c(=O)n2n1C1C=CC2CC1`: the GI50 with NCI-H23 was > 100 µM (inactive); in the test with BT-549 it was > 100 µM (inactive); with HCT-15 it was above 100 µM; in the test with CAKI-1 it was > 100 µM (inactive); in the test with SNB-19 it was > 100 µM (inactive); in the test on DU-145 it was > 100 µM (inactive). The GI50 in the test with LOX IMVI, in the test with OVCAR-3, in the test on UACC-62, with SF-539, in the test on SK-MEL-5 and in the test with U-251 was > 100 µM (inactive) each time. Further, the GI50 with A498, in the test with CCRF-CEM, in the test on SK-MEL-2, with SNB-75 and in the test with Hs-578T was > 100 µM (inactive) throughout.

Regarding `S=C1Nc2cnc3ccccc3c2SC1c1ccccc1` (configuration not stated), the GI50 in the test on NCI-H23 is 96.4 µM (inactive); with BT-549, > 100 µM (inactive); in the test with HCT-15, above 100 µM; in the test with CAKI-1, > 100 µM (inactive); with SNB-19, > 100 µM (inactive); with DU-145, > 100 µM (inactive). The GI50 in the test on Malme-3M is > 100 µM (inactive); with LOX IMVI, 97.5 µM (inactive); in the test with OVCAR-3 it was > 100 µM (inactive); in the test on UACC-62, > 100 µM (inactive); with SK-MEL-5 it was > 100 µM (inactive); with U-251 it was > 100 µM (inactive). Further, the GI50 in the test on SNB-75 was 28.4 µM (inactive); in the test on Hs-578T, 49.9 µM (inactive); in the test on OVCAR-4, > 100 µM (inactive).

For the molecule `CCC12CCCN(Cc3ccccc3)C1c1c([nH]c3ccccc13)C(C(=O)OC)C2` (configuration not stated), the GI50 in the test on NCI-H23 is 8.38 µM (inactive); in the test on BT-549 it was > 10 µM (inactive); in the test with HCT-15, above 10 µM; in the test on CAKI-1, > 10 µM (inactive); in the test on SNB-19, > 10 µM (inactive); in the test on HCC 2998, > 10 µM (inactive). The GI50 with DU-145, in the test with Malme-3M, with LOX IMVI, in the test on OVCAR-3, in the test with UACC-62 and in the test on SF-539 was > 10 µM (inactive) each time. Moreover, the GI50 in the test with SK-MEL-5, in the test with U-251, in the test with CCRF-CEM, in the test with SNB-75, in the test on Hs-578T and in the test with OVCAR-4 was > 10 µM (inactive) throughout.
